Results on two substances are retold here after patent publication US10548982B2, “Reversible covalent linkage of functional molecules” (priority 2009, dated 2020).

In the test the test system is GIRK currents. Description: patch-clamp controls: inhibition of the activated GIRK currents. Type of test: cell-based, human. As to the method: HEK 293 cells expressing HKIR3.1/3.2 channel and human somatostatin receptor 2 were treated with these compounds, and whole cell patch-clamp current recordings taken. […] Cell Culture
Whole cell patch-clamp current recordings were performed with an Axopatch 200B amplifier (Axon Instruments) using fire-polished pipettes with a resistance of 3-4 MS pulled from filamented borosilicated glass capillaries (Harvard Apparatus, 1.5 mm OD×1.17 mm ID). Data was acquired and analysed via a Digidata 1322A interface (Axon Instruments) and pCLAMP software (version 8.1, Axon Instruments). A fast perfusion system was used to apply somatostatin and analogues (Rapid Solution Changer, RSC-160, Bio-Logic France). Cells were clamped at −60 mV. The extracellular solution was (mM): NaCl 80, KCl 60, CaCl2 2, MgCl2 1, HEPES 10, NaH2PO4 0.33, glucose 10, pH 7.4; while the intracellular solution was (mM): K gluconate 110, KCl 20, NaCl 10, MgCl2 1, MgATP 2, EGTA 2 GTP 0.3, pH 7.4. After agonist application, current activated with a delay “lag” followed by a rapid rise to peak amplitude “time to peak”. After removal of the agonist, the current decays back to baseline. For each cell it was assessed if flow artifacts resulting from the pressure of drug application were present. This was done by applying bath solution from one of the sewer pipes at the beginning of the recordings. […]
In general terms: In patch-clamp work, channel activity is measured electrically.

Consider Pertussis toxin, for which, for the setting “pertussis toxin 100 ng/ml, cells incubated overnight”, the “GIRK currents after treatment of cells with Pertussis toxin (control)” value was “currents were largely inhibited”.

In the case of Tertiapin Q, for the setting “Tertiapin 100 nM”, the “GIRK currents after GIRK inhibitor Tertiapin Q (control)” value is listed as “currents were largely inhibited”.
